Measured values from patent US9029076B2, “Tissue preservation and fixation method” (George Mason Research Foundation, Inc., priority 2006, dated 2015).
Entries after “also recorded” stand apart in the source; their conditions may differ.

Assays:
[1] = system: mTOR (S2448); assay: RPA of fixed versus snap frozen samples; conditions: cellular equivalents printed on reverse phase protein microarrays, FIG. 7
Text: We compared phosphoproteins from real time, room temperature shipping conditions in a methanol:water or ethanol:water fixative to samples that were snap frozen.

[2] = system: IRS-1 ser612; assay: RPA phosphoprotein level after 24 h storage of tumor needle samples in preservatives; conditions: 24 h in preservative at 4° C., relative normalized RPA intensity
Protocol: (§1) The RPA format, originated by the present inventors and collaborators (see, e.g., Paweletz et al. (2001) Oncogene 20, 1981-1989), immobilizes an individual test sample in a miniature dilution curve such that an array contains hundreds of different patient samples, treatments, or time points. In the RPA format, each array is incubated with one detection protein (e.g. anti-peptide antibody), and a single analyte endpoint is measured and directly compared across multiple samples. Briefly, the lysates are printed on glass backed nitrocellulose array slides (FAST Slides Whatman, Florham Park, N.J. or ONCYTE slides Grace BioLabs, Bend, Oreg.) using a robotic array printing device (GMS 417 arrayer (Affymetrix, Santa Clara, Calif. or Aushon 2470, Aushon Biosystems, Burlington, Mass. equipped with 125-500 μm pins). Each lysate is printed in a dilution curve representing neat, 1:2, 1:4, 1:8, 1:16 and negative control dilutions. The slides are stored with desiccant (Drierite, W. A. Hammond, Xenia, Ohio) at −20° C. prior to immunostaining.
(§2) Immunostaining is performed on an automated slide stainer per manufacturer's instructions (Autostainer CSA kit, Dako, Carpinteria, Calif.). Each slide is incubated with a single primary antibody at room temperature for 30 minutes. Polyclonal primary antibodies can be, e.g.: GSK3α/β Tyr279/216 (Invitrogen-Biosource, Carlsbad, Calif.), BCL-2, HIF-1α (BD, Franklin Lakes, N.J.), 4EBP1, FKHR ser256, eIF4E, eIF4E ser209, eIF4G, eIF4G ser1108, IGFR-β, IRS-1, IRS-2, IRS-1 ser612, SGK, Bak, Bax, BAD, BAD ser112, BAD ser136, BAD ser155, B-Raf, mTOR, mTOR ser2448, p70S6 Thr389, p70S6 kinase, p70S6 ser371, S6 kinase ser240/244, Akt, Akt ser473, Akt Thr308, 4EBP1 ser65, 4EBP1 ser70, and 4EBP1 Thr37/46 (Cell Signaling Technology, Danvers, Mass.). A negative control slide is incubated with antibody diluent. Secondary antibody can be goat anti-rabbit IgG H+L (1:5000) (Vector Labs, Burlingame, Calif.).
(§3) Each array is scanned, spot intensity analyzed, data normalized, and a standardized, single data value can be generated for each sample on the array (Image Quant v5.2, GE Healthcare, Piscataway, N.J.) or MicroVigene v2.8, Vigene Tech, Billerica, Mass.). Spot intensity is integrated over a fixed area. Local area background intensity is calculated for each spot with the unprinted adjacent slide background. […] The Ward method for two-way hierarchical clustering can be performed using JMP v5.0 (SAS Institute, Cary N.C.). Wilcoxon two-sample rank sum test can be used to compare values between two groups. P values less than 0.05 are considered significant. When one cannot assume a normal distribution of the variables, non-parametric methods are used. Kaplan-Meier (log-rank) survival estimates for univariate survival analysis can be used.
(§4) Briefly, tumor tissues from gastrinoma/liver, mesothelioma and parathyroid tumors were sampled by five needle passes and placed into the preservatives listed in Table 5. […] Immediate lysis and denaturation of the cellular proteins were accomplished by standard Pierce Tissue Protein Extraction Buffer (T-PER), with additional SDS, denaturing reagents, and detergents. The cell samples were stored 24 h in the listed preservatives at 4° C. and then the listed phosphoprotein endpoints were measured. […] Some values dropped to zero while others are markedly elevated compared to the freshly lysed cell baseline. […] They were unable to stabilize the phosphorylation state of key signal proteins over a storage period of 24 hours, which is a typical time delay for cell or tissue shipment. Numbers in the table are relative normalized intensity values using the RPA technology described herein.

[3] = system: AKT ser473; assay: as above; conditions: 24 h in preservative at 4° C., relative normalized RPA intensity
Protocol: as §1, §2, §3, §4

[4] = system: p38 T180/182; assay: as above; conditions: 24 h in preservative at 4° C., relative normalized RPA intensity
Protocol: as §1, §2, §3, §4

[5] = system: CC3 Asp175; assay: as above; conditions: 24 h in preservative at 4° C., relative normalized RPA intensity
Protocol: as §1, §2, §3, §4

[6] = system: CREB ser133; assay: as above; conditions: 24 h in preservative at 4° C., relative normalized RPA intensity
Protocol: as §1, §2, §3, §4

[7] = system: AKT Thr308; assay: as above; conditions: 24 h in preservative at 4° C., relative normalized RPA intensity
Protocol: as §1, §2, §3, §4

[8] = system: EGFR Y1148; assay: as above; conditions: 24 h in preservative at 4° C., relative normalized RPA intensity
Protocol: as §1, §2, §3, §4

[9] = system: IKappa-Ba ser32; assay: as above; conditions: 24 h in preservative at 4° C., relative normalized RPA intensity
Protocol: as §1, §2, §3, §4

[10] = system: GSK3ab ser21/9; assay: as above; conditions: 24 h in preservative at 4° C., relative normalized RPA intensity
Protocol: as §1, §2, §3, §4

[11] = system: ERK T202/Y204; assay: as above; conditions: 24 h in preservative at 4° C., relative normalized RPA intensity
Protocol: as §1, §2, §3, §4

[12] = system: phosphoproteins; assay: Overall phosphoprotein preservation of FNA / tumor needle samples stored 24 h at 4° C.; conditions: compared to directly lysed cell baseline
Protocol: Fine Needle Aspirate (FNA) samples were stored for 24 hours at 4° C. in each of the chemicals/chemical solutions. The cellular samples were further processed for reverse phase protein microarray analysis. […] Each set of 4 horizontal spots by 2 vertical spots represent an original and its replicate sample, printed on the array in two-fold dilutions, for each FNA sample. The dilution series represents undiluted, 1:2, 1:4 and 1:8 dilutions of each sample.
A variety of types of tumor tissues were incubated in a series of conventional preservatives to determine if the preservatives were able to stabilize selected phosphoproteins.

[13] = system: cultured cell line (A549); assay: Phosphorylation over time with phosphatase inhibitor in cell culture model; type: cell-based
Protocol: (§5) The phosphorylation rises rapidly to a high level in less than 40 minutes, which is followed by cell death.
(§6) These continuing metabolic processes present problems for the preservation of phosphoproteins in a sample. For example, the inventors have discovered that the addition of a phosphatase inhibitor alone, designed to block the removal of protein phosphate groups by endogenous phosphatases, can cause unchecked and highly abnormal upward accumulation of abnormal levels of phosphoproteins, reaching a lethal level.

[14] = system: EGFR Y1173; assay: as above; type: cell-based; conditions: living cells exposed to phosphatase inhibitor, FIG. 10A
Protocol: as §5, §6

[15] = Gastrinoma/liver tumor, Lysis Buffer = frozen immediately after lysis
[16] = Parathyroid tumor, Lysis Buffer = frozen immediately after lysis

Q: How did the “level of mTOR (S2448) phosphorylation, fixed versus snap frozen” value [1] turn out when CO [20-50% methanol in water, methanol] was run?
A: equivalence

Q: Which “IRS-1 ser612 Normalized data” value [2, 15] does the source give for CCO [70% ethanol, ethanol] here?
A: 19.74

Q: What about the “IRS-1 ser612 Normalized data” value ([2]; Mesothelioma) of the same compound?
A: 12.16

Q: What about the “IRS-1 ser612 Normalized data” value [2, 16] of the same compound?
A: 15.92

Q: And the “AKT ser473 Normalized data” value [3, 15]?
A: 0.00

Q: And the “AKT ser473 Normalized data” value ([3]; Mesothelioma)?
A: 10.94

Q: What about the “AKT ser473 Normalized data” value [3, 16] of the same compound?
A: 7.18

Q: And the “p38 T180/182 Normalized data” value [4, 15]?
A: 27.50

Q: And the “p38 T180/182 Normalized data” value ([4]; Mesothelioma)?
A: 49.07

Q: And the “p38 T180/182 Normalized data” value [4, 16]?
A: 45.63

Q: And the “CC3 Asp175 Normalized data” value [5, 15]?
A: 5.09

Q: And the “CC3 Asp175 Normalized data” value ([5]; Mesothelioma)?
A: 15.92

Q: And the “CC3 Asp175 Normalized data” value [5, 16]?
A: 19.16

Q: What about the “CREBser133 Normalized data” value [6, 15] of the same compound?
A: 103.07

Q: And the “CREBser133 Normalized data” value ([6]; Mesothelioma)?
A: 53.05

Q: What about the “CREBser133 Normalized data” value [6, 16] of the same compound?
A: 67.91

Q: And the “AKT Thr308 Normalized data” value [7, 15]?
A: 0.00

Q: What about the “AKT Thr308 Normalized data” value ([7]; Mesothelioma) of the same compound?
A: 15.15

Q: What about the “AKT Thr308 Normalized data” value [7, 16] of the same compound?
A: 18.57

Q: What about the “EGFR Y1148 Normalized data” value [8, 15] of the same compound?
A: 39.95

Q: And the “EGFR Y1148 Normalized data” value ([8]; Mesothelioma)?
A: 30.71

Q: And the “EGFR Y1148 Normalized data” value [8, 16]?
A: 47.58

Q: And the “IKappa-Ba ser32 Normalized data” value [9, 15]?
A: 28.36

Q: What about the “IKappa-Ba ser32 Normalized data” value ([9]; Mesothelioma) of the same compound?
A: 25.09

Q: What about the “IKappa-Ba ser32 Normalized data” value [9, 16] of the same compound?
A: 32.97

Q: What about the “GSK3ab ser21/9 Normalized data” value [10, 15] of the same compound?
A: 19.01

Q: What about the “GSK3ab ser21/9 Normalized data” value ([10]; Mesothelioma) of the same compound?
A: 31.87

Q: What about the “GSK3ab ser21/9 Normalized data” value [10, 16] of the same compound?
A: 60.83

Q: What about the “ERK T202/Y204 Normalized data” value [11, 15] of the same compound?
A: 11.51

Q: What about the “ERK T202/Y204 Normalized data” value ([11]; Mesothelioma) of the same compound?
A: 30.74

Q: What about the “ERK T202/Y204 Normalized data” value [11, 16] of the same compound?
A: 37.27

Q: And the “preservation of phosphoproteins overall” value [12]?
A: significant, reproducible degradation of the phospho endpoints

Q: What does the source list for pervanadate?
A: phosphorylation of phospho-endpoints over time ([13]; A549 cells, FIG. 10): hyperphosphorylation over time; also recorded: large surge of phosphorylation; fate of cells after phosphorylation surge ([13]; living cells exposed to phosphatase inhibitor, FIG. 10A): cell death; time for EGFR Y1173 phosphorylation to rise to a high level [14]: less than 40 minutes
